16 compounds from patent publication US6921770B2 (priority 2000, dated 2005) can be followed below.

The test system of series [1] is rice blast fungi. The format is cell-based, Magnaporthe grisea.
Series [2] has as its system rice blast fungi. It is filed as cell-based, Magnaporthe grisea. This is another data set of the same source.
Series [3] deals with rice blast fungi. The format is in vivo, Pyricularia grisea.
The test system of the next series is Pyricularia grisea. The format is in vivo.
For series [4], the system named is Salmonella typhimurium TA100 and TA98.
A further series concerns Oryzias latipes. To be noted: in vivo.
The next series deals with Sprague-Dawley rats. The following applies: rat, in vivo.

Where two headings read alike, the source gives them in different places.

For the compound `Br.Cn1c(CC(=O)Nc2ccccc2)csc1=Nc1cc(Cl)cc(Cl)c1` [Compound 5, 2-(3,5-dichlorophenylimino)-3-methyl-4-(N-phenylcarbamoylmethyl)-1,3-thiazol-4-ine hydrobromide], the “concentration at which the accumulation of melanin in the appressorium is inhibited” value in the series on rice blast fungi [1] was “above 10 μg/ml”. Moreover, in the series with rice blast fungi [2] (5 μg/ml), the “color of the medium” value is on record as “white”. Besides, the “Inhibiting Ratio (%) (at 250 ppm)” value in the series with rice blast fungi [3] is recorded as 100%.

Take `COc1ccc(NC(=O)Cc2csc(=Nc3cccc(Br)c3)n2C)cc1` [Compound 335, 2-(3-bromophenylimino)-3-methyl-4-[N-(methoxyphenyl)carbamoylmethyl]-1,3-thiazol-4-ine]: the “Inhibiting Ratio (%) (at 250 ppm)” value in the series on rice blast fungi [3] is 99%. Moreover, the “controlling effect on rice blast” value in the series with Pyricularia grisea (2 ppm) turned out to be 72%; in the series on Pyricularia grisea (10 ppm), 95%; in the series on Pyricularia grisea (100 ppm), 94%.

In the case of `Cc1cccc2sc3nncn3c12` [tricyclazole, reference compound], the “color of the medium” value in the series with rice blast fungi [2] is on record as “red”.

In the case of `COc1ccc(NC(=O)Cc2csc(=Nc3cccc(F)c3)n2C)cc1.Cl` [Compound 203, 2-(3-fluorophenylimino)-3-methyl-4-[N-(4-methoxyphenyl)carbamoylmethyl]-1,3-thiazol-4-ine hydrochloride], the “Inhibiting Ratio (%) (at 250 ppm)” value with rice blast fungi [3] was 93%. In addition, the “controlling effect on rice blast” value amounted to 93% in the series with Pyricularia grisea (2 ppm), 99% with Pyricularia grisea (10 ppm) and 93% in the series on Pyricularia grisea (100 ppm).

For the compound `Cl.Cn1c(CC(=O)Nc2ccc(Cl)cc2)csc1=Nc1ccc(C#N)cc1` [Compound 128, 2-(4-cyanophenylimino)-3-methyl-4-[N-(4-chlorophenyl)carbamoylmethyl]-1,3-thiazol-4-ine hydrochloride], the “Inhibiting Ratio (%) (at 250 ppm)” value in the series on rice blast fungi [3] stood at 98%. For the same compound, the “controlling effect on rice blast” value with Pyricularia grisea (2 ppm) came to 85%; in the series on Pyricularia grisea (10 ppm) it was 100%; in the series on Pyricularia grisea (100 ppm), 100%.

Consider `Cl.Cn1c(CC(=O)Nc2ccccc2F)csc1=Nc1ccc(Br)cc1` [Compound 152, 2-(4-bromophenylimino)-3-methyl-4-[N-(2-fluorophenyl)carbamoylmethyl]-1,3-thiazol-4-ine hydrochloride], for which the “Inhibiting Ratio (%) (at 250 ppm)” value in the series with rice blast fungi [3] turned out to be 100%. Also, the “controlling effect on rice blast” value is reported as 70% with Pyricularia grisea (2 ppm), 85% with Pyricularia grisea (10 ppm) and 99% in the series with Pyricularia grisea (100 ppm).

Consider `COc1ccc(NC(=O)Cc2csc(=Nc3ccc(F)cc3F)n2C)cc1.Cl` [Compound 206, 2-(2,4-difluorophenylimino)-3-methyl-4-[N-(4-methoxyphenyl)carbamoylmethyl]-1,3-thiazol-4-ine hydrochloride], for which, in the series on rice blast fungi [3], the “Inhibiting Ratio (%) (at 250 ppm)” value stood at 93%. Besides, the “controlling effect on rice blast” value turned out to be 93% in the series with Pyricularia grisea (2 ppm), 97% in the series with Pyricularia grisea (10 ppm) and 93% with Pyricularia grisea (100 ppm).

For the compound `CCCCc1ccc(N=c2scc(CC(=O)Nc3ccc(C)c(Cl)c3)n2C)cc1.Cl` [Compound 234, 2-[4-(n-butyl)phenylimino]-3-methyl-4-(N-[3-chloro-4-methylphenyl)carbamoylmethyl]-4-thiazoline hydrochloride], in the series with rice blast fungi [3], the “Inhibiting Ratio (%) (at 250 ppm)” value came to 97%. Also, the “controlling effect on rice blast” value in the series on Pyricularia grisea (2 ppm) came out at 75%; in the series with Pyricularia grisea (10 ppm), 92%; with Pyricularia grisea (100 ppm), 97%.

Take `COc1ccc(NC(=O)Cc2csc(=Nc3cccc(Br)c3)n2C)cc1.Cl` [Compound 201, 2-(3-bromophenylimino)-3-methyl-4-[N-(4-methoxyphenyl)carbamoylmethyl]-1,3-thiazol-4-ine hydrochloride]: the “Inhibiting Ratio (%) (at 250 ppm)” value in the series on rice blast fungi [3] came to 97%. Also, the “controlling effect on rice blast” value was 87% in the series on Pyricularia grisea (2 ppm), 99% in the series on Pyricularia grisea (10 ppm) and 97% with Pyricularia grisea (100 ppm).

For the compound `COc1ccc(NC(=O)Cc2csc(=Nc3ccccc3F)n2C)cc1.Cl` [Compound 204, 2-(2-fluorophenylimino)-3-methyl-4-[N-(4-methoxyphenyl)carbamoylmethyl]-1,3-thiazol-4-ine hydrochloride], in series [4], the bacterial reverse mutation result is “does not cause bacterial reverse mutation” and the “colony number in the group treated with the test material” value was “less than twice of that in the negative control group”. In addition, in the series on Oryzias latipes, the “Accumulated number of dead animals” value is reported as 0 and the acute toxicity value is reported as over 100 mg/L. Besides, in the series with Sprague-Dawley rats, the body weight result is “Normal weight gain”, the dead animals entry was “not observed”, the general symptoms entry was “Any abnormal observations were made” and the postmortem examination result was “does not show any abnormal conservation”. Further, in the series with Sprague-Dawley rats (po), the minimal lethal dose result is listed as “higher than 2500 mg/kg”. The “Inhibiting Ratio (%) (at 250 ppm)” value with rice blast fungi [3] was determined as 97%. For the same compound, in the series with Pyricularia grisea (2 ppm), the “controlling effect on rice blast” value amounted to 83%. The “controlling effect on rice blast” value in the series on Pyricularia grisea (10 ppm) is listed as 95%. Moreover, in the series with Pyricularia grisea (100 ppm), the “controlling effect on rice blast” value was determined as 97%.

`COc1ccc(NC(=O)Cc2csc(=Nc3ccc(C(F)(F)F)cc3)n2C)cc1.Cl` [Compound 205, 2-(4-trifluoromethylphenylimino)-3-methyl-4-[N-(4-methoxyphenyl)carbamoylmethyl]-1,3-thiazol-4-ine hydrochloride]: the “Inhibiting Ratio (%) (at 250 ppm)” value in the series on rice blast fungi [3] worked out at 97%. Moreover, the “controlling effect on rice blast” value is 93% with Pyricularia grisea (2 ppm), 98% in the series on Pyricularia grisea (10 ppm) and 97% in the series on Pyricularia grisea (100 ppm).

Regarding `CCCCc1ccc(N=c2scc(CC(=O)Nc3ccc(OC)cc3)n2C)cc1.Cl` [Compound 197, 2-[4-(n-butyl)phenylimino]-3-methyl-4-[N-(4-methoxyphenyl)carbamoylmethyl]-1,3-thiazol-4-ine hydrochloride], the “Inhibiting Ratio (%) (at 250 ppm)” value in the series with rice blast fungi [3] was found to be 95%. Also, the “controlling effect on rice blast” value came out at 83% with Pyricularia grisea (2 ppm), 98% with Pyricularia grisea (10 ppm) and 95% with Pyricularia grisea (100 ppm).

Turning to `Br.COc1ccc(NC(=O)Cc2csc(=Nc3ccc(C#N)cc3)n2C)cc1` [Compound 323, 2-(4-cyanophenylimino)-3-methyl-4-[N-(4-methoxyphenyl)carbamoylmethyl]-1,3-thiazol-4-ine hydrobromide], the “Inhibiting Ratio (%) (at 250 ppm)” value in the series with rice blast fungi [3] was determined as 97%. In addition, the “controlling effect on rice blast” value in the series on Pyricularia grisea (2 ppm) was 75%; in the series on Pyricularia grisea (10 ppm) it was 100%; with Pyricularia grisea (100 ppm), 100%.

For the compound `Br.Cc1ccc(NC(=O)Cc2csc(=Nc3ccc(F)cc3F)n2C)cc1` [Compound 31, 2-(2,4-difluorophenylimino)-3-methyl-4-[N-(4-methylphenyl)carbamoylmethyl]-1,3-thiazol-4-ine hydrobromide], in the series on rice blast fungi [3], the “Inhibiting Ratio (%) (at 250 ppm)” value came out at 100%. The “controlling effect on rice blast” value in the series with Pyricularia grisea (2 ppm) is 80%; in the series with Pyricularia grisea (10 ppm), 91%; in the series with Pyricularia grisea (100 ppm), 100%.

In the case of `COc1ccc(NC(=O)Cc2csc(=Nc3ccc(F)c(Cl)c3)n2C)cc1.Cl` [Compound 202, 2-(3-chloro-4-fluorophenylimino)-3-methyl-4-[N-(4-methoxyphenyl)carbamoylmethyl]-1,3-thiazol-4-ine hydrochloride], in the series with rice blast fungi [3], the “Inhibiting Ratio (%) (at 250 ppm)” value is given as 95%. For the same compound, the “controlling effect on rice blast” value with Pyricularia grisea (2 ppm) was 93%; in the series on Pyricularia grisea (10 ppm) it was 98%; in the series with Pyricularia grisea (100 ppm), 95%.

With `Br.Cn1c(CC(=O)Nc2ccccc2)csc1=Nc1ccc(F)cc1F` [Compound 27, 2-(2,4-difluorophenylimino)-3-methyl-4-(N-phenylcarbamoylmethyl)-1,3-thiazol-4-ine hydrobromide], the “Inhibiting Ratio (%) (at 250 ppm)” value with rice blast fungi [3] amounted to 98%. In addition, the “controlling effect on rice blast” value with Pyricularia grisea (2 ppm) was 80%; with Pyricularia grisea (10 ppm) it was 91%; with Pyricularia grisea (100 ppm) it was 98%.
